One compound from the NIST ThermoML archive (doi:10.1016/j.jct.2016.09.015) can be followed below.

For data set [1] the following is noted: Crystal; DTA.
Data set [2] can be described thus: Molar enthalpy of transition or fusion. Conditions: Crystal; DSC.

± gives the expanded uncertainty stated by the source.

Regarding `C[C@@H]1O[C@@H](OC[C@H]2O[C@@H](Oc3c(-c4ccc(OCCO)c(OCCO)c4)oc4cc(OCCO)cc(O)c4c3=O)[C@H](O)[C@@H](O)[C@@H]2O)[C@H](O)[C@H](O)[C@H]1O` [Troxerutin], in data set [1], the Normal melting temperature turned out to be 168.68 ± 0.46 °C. In addition, the “Molar enthalpy of transition or fusion” value in data set [2] turned out to be 31.1 ± 2.2 kJ/mol.
